Consider 14 compounds from patent publication US5025016A, “Pyrimidine-thioalkyl pyridine derivatives, medicaments containing these compounds, and method of treatment” (Ludwig Heumann & Co. GmbH, priority 1983, dated 1991).

Structures can show the parent of a compound that is named as a salt. A value given as a limit tells only on which side of the number the result lay.

In one experiment the test system is tracheal secretion of phenol red. Briefly: Secretion-stimulating activity: tracheal secretion of phenol red after oral administration to female mice. Format: in vivo. The settings on record: Mus musculus, calculated from the regression curves. On the procedure:
Bronchosecretolytic compounds promote the tracheal secretion of phenol red (Chronic Bronchitis Research Group, Chinese Medical Journal 3: 259, 1977). The increase in the tracheal secretion of phenol red is a measure of bronchosecretolytic activity. This activity of the test substances was investigated after oral administration to female mice. The ED50 -values shown in Table 1 were calculated from the regression curves.
For orientation: ED50 means the dose at which the effect has come halfway, by size or by number of responders. Turning to `Nc1c(Br)cc(Br)cc1CN[C@H]1CC[C@H](O)CC1` [Ambroxol, trans-4-(2-amino-3,5-dibromobenzyl)-aminocyclohexanol, reference compound], the ED50 is 250 mg/kg. Consider `Nc1ccnc(SCc2cccnc2)n1` [Example 1, 4-amino-2-(pyridyl-3-methylthio)-pyrimidine], for which the ED50 was 5 mg/kg. Turning to `Oc1ccnc(SCc2cccnc2)n1` [Example 2, 4-hydroxy-2-(pyridyl-3-methylthio)-pyrimidine], the ED50 is 100 mg/kg. For `Nc1cc(O)nc(SCc2cccnc2)n1` [Example 3, 4-amino-6-hydroxy-2-(pyridyl-3-methylthio)-pyrimidine], the ED50 was 2 mg/kg. As to `Nc1cc(N)nc(SCc2cccnc2)n1` [Example 4, 4,6-diamino-2-(pyridyl-3-methylthio)-pyrimidine succinate], the ED50 is above 100 mg/kg. On the same count and under the same terms, next, `Cc1cc(O)nc(SCc2cccnc2)n1` [Example 5, 4-hydroxy-6-methyl-2-(pyridyl-3-methylthio)-pyrimidine]: 15 mg/kg; `Nc1cc(O)nc(SCc2ccc(Cl)nc2)n1` [Example 6, 4-amino-6-hydroxy-2-(pyridyl-6-chloro-3-methylthio)-pyrimidine]: 2 mg/kg.

For `CC(Sc1ncccn1)c1cccnc1` (stereo not shown) [Example 7, 2-(pyridyl-3-(2-ethylthio)-pyrimidine oxalate], the ED50 is 15 mg/kg.

Regarding `Cc1ccc(C(C)Sc2ncccn2)cn1` (stereo not shown) [Example 8], the ED50 was above 100 mg/kg. Take `[O-][S+](Cc1cccnc1)c1ncccn1` (stereo not shown) [Example 9, 2-(pyridyl-3-methylsulfinyl)-pyrimidine hydrochloride]: the ED50 was 2 mg/kg.

For the compound `[O-][S+](Cc1ccncc1)c1ncccn1` (stereo not shown) [Example 10, 2-(pyridyl-4-methylsulfinyl)-pyrimidine hydrochloride], the ED50 was 100 mg/kg.

With `Cc1ccnc([S+]([O-])Cc2cccnc2)n1` (stereo not shown) [Example 11, 4-methyl-2-(pyridyl-3-methylsulfinyl)-pyrimidine oxalate], the ED50 is 10 mg/kg. For the compound `C[n+]1cccc(CSc2ncccn2)c1` [Example 12, 2-(3-methylthio-1-methylpyridinium)-pyrimidine iodide], the ED50 was 1 mg/kg. With `CC[n+]1cccc(CSc2ncccn2)c1` [Example 13, 2-(3-methylthio-1-ethylpyridinium)-pyrimidine iodide], the ED50 was 70 mg/kg.

For a further experiment, the system named is carrageenin-induced inflammation (oedema formation). Description: Antiphlogistic activity: carrageenin-oedema test, right-hand rear paw. Format: in vivo. The settings on record: 100 mg/kg i.g., 30 minutes before injection of the carrageenin; male rats. On the procedure: The antiphlogistic properties of the compounds according to the invention were determined by the carrageenin-oedema test in male rats (average weight 130-160 g, SIV 50, Messrs Ivanovas, Kisslegg). The inhibition of the carrageenin-induced inflammation (oedema formation) was measured on the right-hand rear paw. The test substances were administered intragastrally by esophagus probe 30 minutes before injection of the carrageenin. The results are shown in Table II (Higgs et.al., European Journal of Pharmacology 66, 81-86 (1980)).
In general terms: The carrageenan paw model is a standard test of acute inflammation.
As for `Oc1ccnc(SCc2cccnc2)n1` [Example 2, 4-hydroxy-2-(pyridyl-3-methylthio)-pyrimidine], the “Inhibition in % (carrageenin-induced oedema formation)” value is listed as 45%.

For the compound `Nc1cc(N)nc(SCc2cccnc2)n1` [Example 4, 4,6-diamino-2-(pyridyl-3-methylthio)-pyrimidine succinate], the “Inhibition in % (carrageenin-induced oedema formation)” value is listed as 30%.
